Source: patent publication US20260250250A1, “3-(SULPHONYL OR SULFONIMIDOYL)PROP-2-EN-1-YL]-2-OXO-1,2-DIHYDROPYRIDINE-3-CARBOXAMIDE DERIVATIVES” (Flinder Therapeutics B.V., priority 2022, published 2026)
Read-outs that look alike come from different tables or passages of the source.

Legend:
[1] = target: T1, human E3 ubiquitin-protein ligase RNF31 (HOIP) (Homo sapiens, UniProt Q96EP0); assay: Cell-free HTRF-based HOIP inhibition assay; assay type: biochemical
T1 sequence (Q96EP0 695-1072 limits assumed): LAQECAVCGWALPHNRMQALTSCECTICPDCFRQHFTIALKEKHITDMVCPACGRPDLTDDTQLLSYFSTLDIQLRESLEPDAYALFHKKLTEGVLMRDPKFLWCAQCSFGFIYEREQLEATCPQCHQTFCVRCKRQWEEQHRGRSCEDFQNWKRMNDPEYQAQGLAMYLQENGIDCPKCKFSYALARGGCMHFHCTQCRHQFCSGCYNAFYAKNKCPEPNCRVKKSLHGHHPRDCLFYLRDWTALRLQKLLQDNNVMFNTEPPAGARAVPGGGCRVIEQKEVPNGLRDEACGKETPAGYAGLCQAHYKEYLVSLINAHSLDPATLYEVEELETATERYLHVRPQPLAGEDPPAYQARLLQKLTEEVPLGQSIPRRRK
Procedure, shortened: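 Recombinant human HOIP fragment (E. coli) preincubated with compounds (100-0.005 μM, 1% DMSO) and E1 for 1 h at 25° C. E2 and substrates then added; reaction 2.5 h at 25° C. HTRF read-out, excitation 337 nm, emissions 665/620 nm.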

NF-κB signaling pathway = assay: Cell-based dual luciferase NF-κB reporter assay (HEK293 cells, TNF stimulated)
Procedure, shortened: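 HEK293 cells transfected with Firefly luciferase and NF-κB-response-element NanoLuc plasmids; compounds at 100–0.005 µM in 1% DMSO. Cells stimulated with 2.5 ng/mL TNF 30 min after compound addition. Firefly and NanoLuc activities read after 6 h by Nano-Glo dual-luciferase detection.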

[2] = system: bladder carcinoma RT4 cell line; assay: TNF-α-induced cytotoxicity assay (CellTiter-Glo viability); assay type: cell-based
Procedure, shortened: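 RT4 bladder carcinoma cells, 1000 per well, stimulated with 1.25 ng/mL TNFα together with compound for 72 h at 37° C., 5% CO2. Viability read by CellTiter-Glo luminescence, proportional to cellular ATP, as a measure of HOIP-dependent cytotoxicity.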

Structure (SMILES) | IC50 [1] | IC50 (NF-κB signaling pathway; Homo sapiens, HEK293) | IC50 ([2]; Homo sapiens, RT-4, 72 h) | IC50 ([1]; bin printed as 100 nM < IC50 ≤ 1.0 μM (lower bound in the cell to the left)) | IC50 (NF-κB signaling pathway; HEK293, 2.5 ng/mL TNF, bin printed as 1.0 μM < IC50 ≤ 10 μM (lower bound in the cell to the left)) | IC50 ([2]; RT4, 1.25 ng/mL TNFα, 72 h, bin printed as 1.0 μM < IC50 ≤ 10 μM (lower bound in the cell to the left))
CC(OC(=O)N1CCc2[nH]c(=O)c(C(=O)NC/C=C/S(=O)(=O)c3ccccc3)cc2C1)C(F)(F)F (stereo not drawn) [Example 72, 1,1,1-trifluoropropan-2-yl 3-{[(2E)-3-(benzenesulfonyl)prop-2-en-1-yl]carbamoyl}-2-oxo-1,2,5,6,7,8-hexahydro-1,6-naphthyridine-6-carboxylate] | ≤ 1000 nM | ≤ 1000 nM | ≤ 1000 nM |  |  | 
O=C(NC/C=C/S(=O)(=O)c1ccccc1)c1cc2c([nH]c1=O)CCN(Cc1cccnn1)C2 [Example 123, N-[(2E)-3-(benzenesulfonyl)prop-2-en-1-yl]-2-oxo-6-[(pyridazin-3-yl)methyl]-1,2,5,6,7,8-hexahydro-1,6-naphthyridine-3-carboxamide] | ≤ 1000 nM | ≤ 100000 nM | ≤ 100000 nM |  |  | 
COc1ccc(S(=N)(=O)/C=C/CNC(=O)c2cc3c([nH]c2=O)CCC(C(C)(C)C)C3)cc1F (stereo not drawn) [Example 148, 6-tert-butyl-N-[(2E)-3-[(3-fluoro-4-methoxyphenyl)(imino)oxo-A*-sulfanyl]prop-2-en-1-yl]-2-oxo-1,2,5,6,7,8-hexahydroquinoline-3-carboxamide] | ≤ 1000 nM | ≤ 1000 nM | ≤ 1000 nM |  |  | 
O=C(NC/C=C/S(=O)(=O)c1ccc(F)cc1F)c1cc2c([nH]c1=O)CCCCC2 [Example 34, N-[(2E)-3-(2,4-difluorobenzenesulfonyl)prop-2-en-1-yl]-2-oxo-1H,2H,5H,6H,7H,8H,9H-cyclohepta[b]pyridine-3-carboxamide] | ≤ 1000 nM | ≤ 1000 nM | ≤ 1000 nM |  |  | 
O=C(NC/C=C/S(=O)(=O)c1ccccc1)c1cc2c([nH]c1=O)CCN(C(=O)C13CCC(CC1)C3)C2 [Example 110, N-[(2E)-3-(benzenesulfonyl)prop-2-en-1-yl]-6-{bicyclo[2.2.1]heptane-1-carbonyl}-2-oxo-1,2,5,6,7,8-hexahydro-1,6-naphthyridine-3-carboxamide] | ≤ 1000 nM | ≤ 10000 nM | ≤ 10000 nM |  |  | 
COc1ccc(S(=O)(=O)/C=C/CNC(=O)c2cc3c([nH]c2=O)CCN(C(=O)OC(C)(C)C)C3)cc1F [Example 26, tert-butyl 3-{[(2E)-3-(3-fluoro-4-methoxybenzenesulfonyl)prop-2-en-1-yl]carbamoyl}-2-oxo-1,2,5,6,7,8-hexahydro-1,6-naphthyridine-6-carboxylate] | ≤ 100 nM | ≤ 1000 nM | ≤ 10000 nM |  |  | 
O=C(NC/C=C/S(=O)(=O)c1ccc(F)cc1)c1cc2c([nH]c1=O)CCCCC2 [Example 35, N-[(2E)-3-(4-fluorobenzenesulfonyl)prop-2-en-1-yl]-2-oxo-1H,2H,5H,6H,7H,8H,9H-cyclohepta[b]pyridine-3-carboxamide] | ≤ 1000 nM | ≤ 1000 nM | ≤ 10000 nM |  |  | 
COc1ccc(S(=N)(=O)/C=C/CNC(=O)c2cc3c([nH]c2=O)CCCC3)cc1Cl (stereo not drawn) [Example 133, N-[(2E)-3-[(3-chloro-4-methoxyphenyl)(imino)oxo-λ^6-sulfanyl]prop-2-en-1-yl]-2-oxo-1,2,5,6,7,8-hexahydroquinoline-3-carboxamide] | ≤ 100 nM | ≤ 1000 nM | ≤ 1000 nM |  |  | 
O=C(NC/C=C/S(=O)(=O)c1ccccc1)c1cc2c([nH]c1=O)CCC(F)(F)C2 [Example 49, N-[(2E)-3-(benzenesulfonyl)prop-2-en-1-yl]-6,6-difluoro-2-oxo-1,2,5,6,7,8-hexahydroquinoline-3-carboxamide] | ≤ 1000 nM | ≤ 10000 nM | ≤ 10000 nM |  |  | 
CC(C)(C)OC(=O)N1CCc2[nH]c(=O)c(C(=O)NC/C=C/S(=O)(=O)c3ccc(Cl)cc3)cc2C1 [Example 27, tert-butyl 3-{[(2E)-3-(4-chlorobenzenesulfonyl)prop-2-en-1-yl]carbamoyl}-2-oxo-1,2,5,6,7,8-hexahydro-1,6-naphthyridine-6-carboxylate] | ≤ 100 nM | ≤ 1000 nM | ≤ 1000 nM |  |  | 
O=C(NCC=CS(=O)(=O)c1ccccc1)c1cc2c([nH]c1=O)CCN(C(=O)OC1CCOC1)C2 [Example 82, (3R)-oxolan-3-vi 3-{[(2E)-3-(benzenesulfonyl)prop-2-en-1-yl]carbamoyl}-2-oxo-1,2,5,6,7,8-hexahydro-1,6-naphthyridine-6-carboxylate] |  |  |  | ≤ 1000 nM | ≤ 10000 nM | ≤ 10000 nM
COCC(C)OC(=O)N1CCc2[nH]c(=O)c(C(=O)NC/C=C/S(=O)(=O)c3ccccc3)cc2C1 (stereo not drawn) [Example 75, 1-methoxypropan-2-vi 3-{[(2E)-3-(benzenesulfonyl)prop-2-en-1-yl]carbamoyl}-2-oxo-1,2,5,6,7,8-hexahydro-1,6-naphthyridine-6-carboxylate] | ≤ 1000 nM | ≤ 10000 nM | ≤ 10000 nM |  |  | 
COc1ccc(S(=N)(=O)/C=C/CNC(=O)c2cc3c([nH]c2=O)CCC3)cc1F (stereo not drawn) [Example 151, N-[(2E)-3-[(3-fluoro-4-methoxyphenyl)(imino)oxo-λ^6-sulfanyl]prop-2-en-1-yl]-2-oxo-1H,2H,5H,6H,7H-cyclopenta[b]pyridine-3-carboxamide] | ≤ 1000 nM | ≤ 10000 nM | ≤ 1000 nM |  |  | 
O=C(NC/C=C/S(=O)(=O)c1cccc(F)c1)c1cc2c([nH]c1=O)CCCC2 [Example 39, N-[(2E)-3-(3-fluorobenzenesulfonyl)prop-2-en-1-yl]-2-oxo-1,2,5,6,7,8-hexahydroquinoline-3-carboxamide] | ≤ 100 nM | ≤ 1000 nM | ≤ 1000 nM |  |  | 
O=C(NCC=CS(=O)(=O)c1ccccc1)c1cc2c([nH]c1=O)CCN(C(=O)OC1CCOC1)C2 [Example 81, (3S)-Oxolan-3-vi 3-{[(2E)-3-(benzenesulfonyl)prop-2-en-1-yl]carbamoyl}-2-oxo-1,2,5,6,7,8-hexahydro-1,6-naphthyridine-6-carboxylate] | ≤ 1000 nM | ≤ 10000 nM | ≤ 10000 nM |  |  | 
